Earlier results as cited in article PMC5340309 (Biomacromolecules, 2016).

What was measured:
Settings in all cases: included for comparison
[1] = tested on: K. pneumoniae (ATCC 13383)
[2] = tested on: P. aeruginosa (ATCC27853)
[3] = tested on: Methicillin-resistant S. epidermidis (MRSE, RP62A)
[4] = tested on: Methicillin-resistant S. aureus (MRSA, ATCC 33591)

## pexiganan
[1]
  MIC K. pneumonia (Gram−): 32 µg/mL
[2]
  MIC P. aeruginosa (Gram−): 16 µg/mL
[3]
  MIC MRSE (Gram+): 8 µg/mL
[4]
  MIC MRSA (Gram+): 16 µg/mL
